Laboratory results: US20040156869A1, “2-substituted quinazolin-4-ylamine analogues” (Neurogen Corporation, priority 2002, published 2004)

Molecular target: human capsaicin receptor (VR1) (Homo sapiens, UniProt Q8NER1)
Assay: Capsaicin receptor binding assay ([3H]RTX competition, VR1-transfected HEK293 membranes)

Sequence of human capsaicin receptor (VR1) (Q8NER1 whole entry): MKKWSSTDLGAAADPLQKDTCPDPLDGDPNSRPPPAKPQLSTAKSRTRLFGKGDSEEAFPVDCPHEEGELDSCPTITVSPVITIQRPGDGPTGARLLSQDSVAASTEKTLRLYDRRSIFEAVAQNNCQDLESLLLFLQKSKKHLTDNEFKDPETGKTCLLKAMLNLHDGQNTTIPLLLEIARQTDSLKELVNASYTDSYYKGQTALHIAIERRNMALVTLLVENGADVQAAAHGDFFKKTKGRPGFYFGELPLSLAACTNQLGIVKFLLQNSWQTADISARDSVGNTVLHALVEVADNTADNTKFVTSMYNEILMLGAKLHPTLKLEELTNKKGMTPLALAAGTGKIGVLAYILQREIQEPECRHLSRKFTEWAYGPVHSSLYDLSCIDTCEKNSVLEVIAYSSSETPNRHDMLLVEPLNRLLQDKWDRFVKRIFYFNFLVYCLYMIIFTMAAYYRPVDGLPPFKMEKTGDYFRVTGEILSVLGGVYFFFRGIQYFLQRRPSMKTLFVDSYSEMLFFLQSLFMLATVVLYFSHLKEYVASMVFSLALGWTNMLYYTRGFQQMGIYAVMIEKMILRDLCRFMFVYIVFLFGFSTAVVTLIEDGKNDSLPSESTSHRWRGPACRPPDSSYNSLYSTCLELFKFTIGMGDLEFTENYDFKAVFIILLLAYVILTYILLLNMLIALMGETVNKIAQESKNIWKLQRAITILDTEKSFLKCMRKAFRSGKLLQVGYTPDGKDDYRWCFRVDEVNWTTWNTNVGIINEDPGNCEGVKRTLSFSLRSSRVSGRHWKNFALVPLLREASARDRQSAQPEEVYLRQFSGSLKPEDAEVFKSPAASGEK

Ki, < 1000 nM:
CC(C)[C@@H](OCc1nc(Nc2ccc(C(C)(C)C)cc2)c2ccc(-c3ncccc3C(F)(F)F)cc2n1)C(=O)O [Compound 234, 2-[4-(4-tert-Butyl-phenylamino)-7-(3-trifluoromethyl-pyridin-2-yl)-quinazolin-2-ylmethoxy]-3-methyl-butyric acid (R)]
FC(F)(F)c1ccc(Nc2nc(CN3CCOCC3)nc3cc(-c4ncccc4C(F)(F)F)cnc23)cn1 [Compound 542, [2-Morpholin-4-ylmethyl-7-(3-trifluoromethyl-pyridin-2-yl)-pyrido[3,2-d]pyrimidin-4-yl]-(6-trifluoromethyl-pyridin-3-yl)-amine]
COCc1nc(Nc2ccc(S(C)(=O)=O)cc2)c2ccc(-c3ncccc3C(F)(F)F)nc2n1 [Compound 112, (4-Methanesulfonyl-phenyl)-[2-methoxymethyl-7-(3-trifluoromethyl-pyridin-2-yl)-pyrido[2,3-d]pyrimidin-4-yl]-amine]
C=CCNC(=O)c1nc(Nc2ccc(C(F)(F)F)cc2)c2ccc(-c3ncccc3C(F)(F)F)nc2n1 [Compound 451, 4-(4-Trifluoromethyl-phenylamino)-7-(3-trifluoromethyl-pyridin-2-yl)-pyrido[2,3-d]pyrimidine-2-carboxylic acid allylamide]
CCCCCN(CCCCC)CCc1nc(Nc2ccc(C(F)(F)F)cc2)c2ccc(-c3ncccc3C(F)(F)F)cc2n1 [Compound 428, [2-Dipentylaminoethyl-7-(3-trifluoromethyl-pyridin-2-yl)-quinazolin-4-yl]-(4-trifluoromethyl-phenyl)-amine]
FC(F)(F)c1ccc(Nc2nc(CN3CCSCC3)nc3cc(-c4ncccc4C(F)(F)F)cnc23)cc1 [Compound 660, [2-Thiomorpholin-4-ylmethyl-7-(3-trifluoromethyl-pyridin-2-yl)-pyrido[3,2-d]pyrimidin-4-yl]-(4-trifluoromethyl-phenyl)-amine]
C[C@@H]1CN(Cc2nc(Nc3ccc(S(=O)(=O)C(F)(F)F)cc3)c3ccc(-c4ncccc4C(F)(F)F)cc3n2)C[C@H](C)O1 [Compound 582, [2-(2,6-Dimethyl-morpholin-4-ylmethyl)-7-(3-trifluoromethyl-pyridin-2-yl)-quinazolin-4-yl]-(4-trifluoromethanesulfonyl-phenyl)-amine (cis)]
CC(C)c1ccc(Nc2nc(CN3C[C@@H](C)O[C@@H](C)C3)nc3cc(-c4ncccc4C(F)(F)F)cnc23)cc1 [Compound 613, [2-(2,6-Dimethyl-morpholin-4-ylmethyl)-7-(3-trifluoromethyl-pyridin-2-yl)-pyrido[3,2-d]pyrimidin-4-yl]-(4-isopropyl-phenyl)-amine (cis)]
CCCN(CCO)Cc1nc(Nc2ccc(C(C)(C)C)cc2)c2ccc(-c3ncccc3C(F)(F)F)cc2n1 [Compound 754, 2-{[4-(4-tert-Butyl-phenylamino)-7-(3-trifluoromethyl-pyridin-2-yl)-quinazolin-2-ylmethyl]-propyl-amino}-ethanol]
O=C(O)CCNC(=O)c1nc(Nc2ccc(C(F)(F)F)cc2)c2ccc(-c3ncccc3C(F)(F)F)nc2n1 [Compound 765, 3-{[4-(4-Trifluoromethyl-phenylamino)-7-(3-trifluoromethyl-pyridin-2-yl)-pyrido[2,3-d]pyrimidine-2-carbonyl]-amino}-propionic acid]
CC(=O)OCc1nc(Nc2ccc(C(F)(F)F)nc2)c2ccc(-c3ncccc3C(F)(F)F)cc2n1 [Compound 21, Acetic acid 7-(3-trifluoromethyl-pyridin-2-yl)-4-(6-trifluoromethyl-pyridin-3-ylamino)-quinazolin-2-ylmethyl ester]
COCc1nc(Nc2ccc(C(C)C)cc2)c2ncc(-c3ncccc3Cl)cc2n1 [Compound 66, [7-(3-Chloro-pyridin-2-yl)-2-methoxymethyl-pyrido[3,2-d]pyrimidin-4-yl]-(4-isopropyl-phenyl)-amine]
OCc1nc(Nc2ccc(C(F)(F)F)cc2)c2ccc(-c3ncccc3C(F)(F)F)nc2n1 [Compound 171, [4-(4-Trifluoromethyl-phenylamino)-7-(3-trifluoromethyl-pyridin-2-yl)-pyrido[2,3-d]pyrimidin-2-yl]-methanol]
CN(C)C(=O)c1nc(Nc2ccc(C(F)(F)F)cc2)c2ccc(-c3ncccc3C(F)(F)F)cc2n1 [Compound 707, 4-(4-Trifluoromethyl-phenylamino)-7-(3-trifluoromethyl-pyridin-2-yl)-quinazoline-2-carboxylic acid dimethylamide]
CN(C)Cc1nc(Nc2ccc(C(F)(F)F)nc2)c2ccc(-c3ncccc3C(F)(F)F)cc2n1 [Compound 366, [2-Dimethylaminomethyl-7-(3-trifluoromethyl-pyridin-2-yl)-quinazolin-4-yl]-(6-trifluoromethyl-pyridin-3-yl)-amine]
CN(C)CCCNC(=O)c1nc(Nc2ccc(C(F)(F)F)cc2)c2ccc(-c3ncccc3C(F)(F)F)nc2n1 [Compound 436, 4-(4-Trifluoromethyl-phenylamino)-7-(3-trifluoromethyl-pyridin-2-yl)-pyrido[2,3-d]pyrimidine-2-carboxylic acid (3-dimethylamino-propyl)-amide]
FC(F)(F)c1ccc(Nc2cc(CN3CCSCC3)nc3nc(-c4ncccc4C(F)(F)F)ccc23)cc1 [Compound 802, [2-Thiomorpholin-4-ylmethyl-7-(3-trifluoromethyl-pyridin-2-yl)-[1,8]naphthyridin-4-yl]-(4-trifluoromethyl-phenyl)-amine]
CC(=O)C(C)(C)c1ccc(Nc2nc(COCC(C)C)nc3nc(-c4ncccc4Cl)ccc23)cc1 [Compound 210, 3-{4-[7-(3-Chloro-pyridin-2-yl)-2-isobutoxymethyl-pyrido[2,3-d]pyrimidin-4-ylamino]-phenyl}-3-methyl-butan-2-one]
CCOCc1nc(Nc2ccc(C(C)C(F)(F)F)cc2)c2ccc(-c3ncccc3C(F)(F)F)nc2n1 (stereo not shown) [Compound 231, [2-Ethoxymethyl-7-(3-trifluoromethyl-pyridin-2-yl)-pyrido[2,3-d]pyrimidin-4-yl]-[4-(2,2,2-trifluoro-1-methyl-ethyl)-phenyl]-amine]
COCCOCc1nc(Nc2ccc(C(F)(F)F)cc2)c2ccc(-c3ncccc3Cl)nc2n1 [Compound 76, [7-(3-Chloro-pyridin-2-yl)-2-(2-methoxy-ethoxymethyl)-pyrido[2,3-d]pyrimidin-4-yl]-(4-trifluoromethyl-phenyl)-amine]
C[C@@H]1CN(Cc2nc(Nc3ccc(C(F)(F)F)cc3)c3ccc(-c4ncccc4Cl)cc3n2)CCO1 [Compound 674, (R)-[7-(3-Chloro-pyridin-2-yl)-2-(2-methyl-morpholin-4-ylmethyl)-quinazolin-4-yl]-(4-trifluoromethyl-phenyl)-amine]
COCCN(CCOC)Cc1nc(Nc2ccc(C(F)(F)F)cc2)c2ccc(-c3ncccc3C(F)(F)F)nc2n1 [Compound 749, [2-{[Bis-(2-methoxy-ethyl)-amino]-methyl}-7-(3-trifluoromethyl-pyridin-2-yl)-pyrido[2,3-d]pyrimidin-4-yl]-(4-trifluoromethyl-phenyl)-amine]
CC(C)COCc1nc(Nc2ccc(C(C)(C)C)nc2)c2ccc(-c3ncccc3Cl)nc2n1 [Compound 194, (6-tert-Butyl-pyridin-3-yl)-[7-(3-chloro-pyridin-2-yl)-2-isobutoxymethyl-pyrido[2,3-d]pyrimidin-4-yl]-amine]
C[C@@H]1CN(Cc2nc(Nc3ccc(C(F)(F)F)nc3)c3ccc(-c4ncccc4Cl)cc3n2)C[C@@H](C)O1 [Compound 610, (R,R)-[7-(3-Chloro-pyridin-2-yl)-2-(2,6-dimethyl-morpholin-4-ylmethyl)-quinazolin-4-yl]-(6-trifluoromethyl-pyridin-3-yl)-amine]
OC1CCN(CCc2nc(Nc3ccc(C(F)(F)F)cc3)c3ccc(-c4ncccc4C(F)(F)F)cc3n2)CC1 [Compound 586, [2-(4-Hydroxy-piperidin-1-ylethyl)-7-(3-trifluoromethyl-pyridin-2-yl)-quinazolin-4-yl]-(4-trifluoromethyl-phenyl)-amine]
CCOC(=O)C1CCN(Cc2nc(Nc3ccc(C(F)(F)F)nc3)c3ccc(-c4ncccc4C(F)(F)F)cc3n2)CC1 [Compound 491, 1-[7-(3-Trifluoromethyl-pyridin-2-yl)-4-(6-trifluoromethyl-pyridin-3-ylamino)-quinazolin-2-ylmethyl]-piperidine-4-carboxylic acid ethyl ester]
CC1(C)CCCN(CCc2nc(Nc3ccc(C(F)(F)F)cc3)c3ccc(-c4ncccc4C(F)(F)F)cc3n2)C1 [Compound 404, [2-(3,3-Dimethyl-piperidin-1-ylethyl)-7-(3-trifluoromethyl-pyridin-2-yl)-quinazolin-4-yl]-(4-trifluoromethyl-phenyl)-amine]
CC(C)c1ccc(Nc2nc(CN3CCO[C@H](C)C3)nc3cc(-c4ncccc4Cl)ccc23)cc1 [Compound 673, (R)-[7-(3-Chloro-pyridin-2-yl)-2-(2-methyl-morpholin-4-ylmethyl)-quinazolin-4-yl]-(4-isopropyl-phenyl)-amine]
CCCC(=O)c1ccc(Nc2nc(COCC(C)C)nc3nc(-c4ncccc4Cl)ccc23)cc1 [Compound 280, 1-{4-[7-(3-Chloro-pyridin-2-yl)-2-isobutoxymethyl-pyrido[2,3-d]pyrimidin-4-ylamino]-phenyl}-butan-1-one]
CN(CCc1nc(Nc2ccc(C(F)(F)F)cc2)c2ccc(-c3ncccc3C(F)(F)F)cc2n1)Cc1ccccc1 [Compound 392, [2-[2-(Benzyl-methyl-amino)-ethyl]-7-(3-trifluoromethyl-pyridin-2-yl)-quinazolin-4-yl]-(4-trifluoromethyl-phenyl)-amine]
CC(C)CCOCc1cc(Nc2ccc(C(F)(F)F)cc2)c2ccc(-c3ncccc3C(F)(F)F)nc2n1 [Compound 312, [2-(3-Methyl-butoxymethyl)-7-(3-trifluoromethyl-pyridin-2-yl)-[1,8]naphthyridin-4-yl]-(4-trifluoromethyl-phenyl)-amine]
